ChEMBL document CHEMBL2010777, “Synthesis and evaluation of human phosphodiesterases (PDE) 5 inhibitor analogs as trypanosomal PDE inhibitors. Part 2. Tadalafil analogs” (Bioorg Med Chem Lett, 2012)

Columns and labels:
[1] = target: T1, Class 1 phosphodiesterase PDEB1 (Trypanosoma brucei) (UniProt Q8WQX9); assay: Inhibition of Trypanosoma brucei PDEB1 using cAMP as substrate at 10 uM preincubated for 10 mins prior substrate addition by spectrophotometry
T1 sequence (whole entry): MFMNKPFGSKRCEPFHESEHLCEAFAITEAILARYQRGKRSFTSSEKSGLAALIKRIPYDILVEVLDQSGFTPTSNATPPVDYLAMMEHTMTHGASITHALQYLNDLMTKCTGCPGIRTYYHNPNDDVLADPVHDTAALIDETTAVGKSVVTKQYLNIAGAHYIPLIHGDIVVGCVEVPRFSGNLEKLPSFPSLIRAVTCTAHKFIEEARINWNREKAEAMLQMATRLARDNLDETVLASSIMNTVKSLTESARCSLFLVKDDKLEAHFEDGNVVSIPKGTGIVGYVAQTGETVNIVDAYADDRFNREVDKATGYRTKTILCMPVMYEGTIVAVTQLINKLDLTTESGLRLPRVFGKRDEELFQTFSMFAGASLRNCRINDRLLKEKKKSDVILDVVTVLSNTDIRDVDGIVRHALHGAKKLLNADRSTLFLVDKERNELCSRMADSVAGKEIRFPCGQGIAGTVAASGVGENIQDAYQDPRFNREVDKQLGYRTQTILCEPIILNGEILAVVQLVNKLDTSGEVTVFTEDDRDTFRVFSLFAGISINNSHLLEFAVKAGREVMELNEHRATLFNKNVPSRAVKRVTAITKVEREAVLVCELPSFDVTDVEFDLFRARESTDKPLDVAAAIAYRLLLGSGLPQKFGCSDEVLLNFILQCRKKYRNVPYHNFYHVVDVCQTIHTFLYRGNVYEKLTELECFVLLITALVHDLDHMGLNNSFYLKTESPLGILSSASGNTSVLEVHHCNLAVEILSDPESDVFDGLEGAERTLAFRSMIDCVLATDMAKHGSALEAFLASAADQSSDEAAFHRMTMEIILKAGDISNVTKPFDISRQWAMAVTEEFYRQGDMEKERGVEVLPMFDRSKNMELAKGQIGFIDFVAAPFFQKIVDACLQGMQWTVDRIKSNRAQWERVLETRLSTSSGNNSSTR

[2] = Solubility of the compound at higher concentration; assay type: physicochemical
[3] = target: T1, Class 1 phosphodiesterase PDEB1 (Trypanosoma brucei); assay: Inhibition of Trypanosoma brucei PDEB1 using cAMP as substrate at 100 uM preincubated for 10 mins prior substrate addition by spectrophotometry

Structure (SMILES)	inhibition [1] [%]	solubility [2]	inhibition [3] [%]
NC(=O)[C@H]1Cc2c([nH]c3ccccc23)C(c2cccnc2)N1 (stereo partly drawn)	22.6	–	–
CN1CC(=O)N2C(CNC(=O)OCc3ccccc3)c3[nH]c4ccccc4c3C[C@@H]2C1=O (stereo partly drawn)	21.2	–	–
NC(=O)[C@H]1Cc2c([nH]c3ccccc23)[C@H](c2ccc3c(c2)OCO3)N1	–	–	0
CN1CC(=O)N2[C@H](c3ccc4c(c3)OCO4)c3[nH]c4ccccc4c3C[C@@H]2C1=O	–	–	0
CN1CC(=O)N2[C@@H](c3ccc4c(c3)OCO4)c3c(c4ccccc4n3C)C[C@@H]2C1=O	19.7	–	–
CC(=O)N1CCc2c([nH]c3ccccc23)C1c1ccc2c(c1)OCO2 (stereo not drawn)	–	–	17
Cc1n[nH]cc1C(=O)NCC1c2[nH]c3ccccc3c2C[C@@H]2C(=O)N(C)CC(=O)N12 (stereo partly drawn)	0	–	–

Now from value to compound:

inhibition [1] [%]	solubility [2]	inhibition [3] [%]	Structure (SMILES)
6.09	–	–	CN1CC(=O)N2C(CNCc3cccnc3)c3[nH]c4ccccc4c3C[C@@H]2C1=O (stereo partly drawn)
71.8	Insoluble	–	CN1CC(=O)N2[C@@H](c3ccc4c(c3)OCO4)c3[nH]c4ccc(-c5ccn[nH]5)cc4c3C[C@@H]2C1=O
–	–	13.3	CC1NC(C(N)=O)Cc2c1[nH]c1ccccc21 (stereo not drawn)
38.8	–	–	CN1CC(=O)N2[C@@H](c3ccc4c(c3)OCO4)c3[nH]c4ccccc4c3C[C@@H]2C1=O
11.6	–	–	CN1CC(=O)N2[C@@H](c3ccc4c(c3)OCO4)c3[nH]c4ccc(Br)cc4c3C[C@@H]2C1=O
0	–	–	CC(=O)NCC1c2[nH]c3ccccc3c2C[C@@H]2C(=O)N(C)CC(=O)N12 (stereo partly drawn)
11.8	–	–	CN1CC(=O)N2[C@H](c3ccc4c(c3)OCO4)c3[nH]c4ccc(Br)cc4c3C[C@@H]2C1=O
–	–	19.5	NC(=O)[C@H]1Cc2c([nH]c3ccccc23)[C@@H](c2ccc3c(c2)OCO3)N1
–	–	9.4	CN1CC(=O)N2C(c3cccnc3)c3[nH]c4ccccc4c3C[C@@H]2C1=O (stereo partly drawn)
6.9	–	–	CN1CC(=O)N2[C@H](c3ccc4c(c3)OCO4)c3c(c4ccccc4n3C)C[C@@H]2C1=O
